# Test results published in patent US20180140655A1, “AGENT CONTAINING IMIDAZOLE DIPEPTIDE” (THE UNIVERSITY OF TOKYO, priority 2014, published 2018).
# Legend:
# [1] = test system: transgenic mice (Alzheimer disease model mice); test: Blood cytokines in high fat diet Alzheimer disease model mice; format: in vivo, mouse; details: carnosine-containing diet group
# Method: (§1) High fat diet (HFD) was given to transgenic mice (Alzheimer disease model mice) to induce cerebral hypofunction. Carnosine (L-histidine-β-alanine) was administered to the mice, and influence of carnosine was evaluated.
# (§2) Suppression of cerebral inflammation in the carnosine administration group was also shown by the results of MRI test (FIG. 8-2, red portions). The results of the microarray analysis indicated increase of expressions of GABA transporters such as 7Slc6a12 and slc6a13 observed in the Alzheimer model was suppressed in the carnosine administration group (FIG. 8-3).
# [2] = Stability at ordinary temperature, under cooking conditions and in solution; format: physicochemical; details: for stability under cooking conditions: cooking conditions of 180° C. or lower
# Source text: The agent, pharmaceutical composition, or nutritional composition of the present invention can be produced by using various known techniques. The step of adjusting concentration of the active ingredient to a predetermined concentration may be performed in various stages of the manufacturing process. Those skilled in the art can appropriately design the steps for producing the agent of the present invention in consideration of solubility, stability, volatility, etc. of the active ingredient. […] It was also confirmed that they can be stably stored over at least 2 years and 9 months in a state of solution.
# [3] = test system: transgenic mice (Alzheimer disease model mice); test: Intracerebral inflammatory reaction by MRI in Alzheimer disease model mice; format: in vivo, mouse; details: carnosine administration group, high fat diet transgenic mice
# Method: as §1, §2
# GABA transporters = test: Microarray analysis of GABA transporter genes in Alzheimer disease model mice; format: in vivo, mouse; details: carnosine administration group vs Alzheimer model
# Method: as §1, §2
# [4] = cited from earlier work
# [5] = test system: transgenic mice (Alzheimer disease model mice); test: Blood insulin concentration in Alzheimer disease model mice; format: in vivo, mouse; details: mice starved overnight; high fat diet-induced Alzheimer disease; p<0.05
# Method: as §1
# Blood was collected from mice starved overnight, and blood insulin concentration was determined with a kit (Morinaga).
stability under cooking conditions [2],stability at an ordinary temperature [2],Structure (SMILES),blood cytokines [1],cerebral inflammation (MRI test) [3],increase of expression of GABA transporter 7Slc6a12 (GABA transporters),increase of expression of GABA transporter slc6a13 (GABA transporters),water solubility ([4]; at 25° C.),water solubility (in words) [4],increase of the blood insulin concentration [5]
sufficiently stable,sufficiently stable,NCCC(=O)N[C@@H](Cc1cnc[nH]1)C(=O)O [carnosine],decreased,Suppression,suppressed,suppressed,1 g/3.1 ml,water-soluble,suppressed
sufficiently stable,sufficiently stable,"Cn1cncc1C[C@H](NC(=O)CCN)C(=O)O [anserine, (2S)-2-[(3-amino-1-oxopropyl)amino]-3-(3-methyl-4-imidazolyl)ppropanoic acid]",–,–,–,–,–,water-soluble,–
